According to US20100233172A1, “METHODS OF INHIBITING QUIESCENT TUMOR PROLIFERATION” (Bristol-Myers Squibb Company, priority 2008, published 2010):
pIC50: −log10 of the molar value. Blank lines part the entries; values can stand above or below the compound they belong to.

Assays:
[1] = test system: HCT-116 cells; experiment: Clonogenic assay, proliferating (P) versus quiescent (Q) cells; assay type: cell-based, human; settings: for P/Q selectivity: ratio derived from the IC90s on HCT116 cells; for IC90: Homo sapiens, HCT-116, P cells, 16 hr treatment
Procedure: Tumor Cell Lines. […] Proliferating cultures were set up by plating 3×10^5 cells in 10 ml of RPMI medium in T75 flasks on day 0 and treated with compounds (dissolved in fresh medium) on day 2 or 3. Quiescent cultures were set up by plating 3×10^5 cells in 10 ml of RPMI media in T75 flasks on day 0, changing medium on day 2, and treated with drugs dissolved in spent media on day 6 for 17 hr.
Clonogenic Assay. […] After 10 days incubation at 37° C., colonies were stained with crystal violet.

[2] = test system: HCT116 xenografts; experiment: HCT116 xenografts in nude mice; assay type: in vivo; settings: at MTD: 600 mg/kg; for Activity in vivo, cures: cures per mice
[3] = target: FT (Homo sapiens, UniProt P49354+P49356); experiment: Prenyltransferase enzyme assay, FT; assay type: biochemical
Procedure: (§1) Enzyme Assays. Prenyltransferases and H-Ras processing inhibition were carried out as described earlier (Hunt et al., Rose et al., Lackner et al., Manne et al., and Lombardo et al).

[4] = target: geranylgeranyl transferase I (GGTI) (Homo sapiens, UniProt P49354+P53609); experiment: Prenyltransferase enzyme assay, GGTI; assay type: biochemical
Procedure: as §1

[5] = target: T1, Rab geranylgeranyl transferase (GGTII) (Homo sapiens, UniProt P53611+Q92696); experiment: Prenyltransferase enzyme assay, RabGGT; assay type: biochemical
T1 sequence (Q92696 1-567): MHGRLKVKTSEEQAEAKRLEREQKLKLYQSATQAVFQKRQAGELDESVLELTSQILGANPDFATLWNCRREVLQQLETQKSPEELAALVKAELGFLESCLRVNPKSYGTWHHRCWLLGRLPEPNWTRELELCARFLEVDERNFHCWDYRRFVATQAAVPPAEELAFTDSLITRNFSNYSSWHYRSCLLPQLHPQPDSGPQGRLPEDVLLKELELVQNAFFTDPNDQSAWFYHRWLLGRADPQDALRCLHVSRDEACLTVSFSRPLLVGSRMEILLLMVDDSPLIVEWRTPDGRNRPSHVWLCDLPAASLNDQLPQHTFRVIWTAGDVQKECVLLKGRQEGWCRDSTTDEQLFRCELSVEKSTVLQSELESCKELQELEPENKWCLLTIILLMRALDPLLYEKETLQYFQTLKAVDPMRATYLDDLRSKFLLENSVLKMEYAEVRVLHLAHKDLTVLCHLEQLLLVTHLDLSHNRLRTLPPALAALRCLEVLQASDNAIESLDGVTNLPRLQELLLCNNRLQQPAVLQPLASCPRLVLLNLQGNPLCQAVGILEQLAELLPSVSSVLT
T1 sequence (P53611 1-331): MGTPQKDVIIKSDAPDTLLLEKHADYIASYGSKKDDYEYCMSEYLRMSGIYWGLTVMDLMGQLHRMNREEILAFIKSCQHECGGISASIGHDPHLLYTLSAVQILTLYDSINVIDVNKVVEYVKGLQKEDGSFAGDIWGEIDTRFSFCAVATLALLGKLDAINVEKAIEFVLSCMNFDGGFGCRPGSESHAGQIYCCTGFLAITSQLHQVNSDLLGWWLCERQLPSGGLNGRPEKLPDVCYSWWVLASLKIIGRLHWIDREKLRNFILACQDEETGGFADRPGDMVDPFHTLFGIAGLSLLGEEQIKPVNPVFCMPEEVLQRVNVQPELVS
Procedure: as §1

[6] = test system: cross-linker site in HCT-116 quiescent cell extracts; experiment: Cross-linking competition with tritium labeled azido analogue BMS-540864; assay type: binding, human
[7] = test system: HCT-116 cells; experiment: Flow cytometry of HCT-116 P and Q cells (BrdU, p85 PARP, activated caspase 3); assay type: cell-based, human
Procedure: Untreated HCT-116 cells in P or in Q state (Panel a) were analyzed by flow cytometry. The y axis represents cell numbers and the x axis DNA content. […] The x axis indicates the level of activated caspase while the y axis represents percentage of total fluorescence adjusted to 100%. […] The x axis indicates the level of BrdU incorporation, while the y axis indicates the p85 cleaved PARP cells.

[8] = target: T2, Programmed cell death (AIF) (Homo sapiens, UniProt O95831); experiment: Affinity capture on monomeric avidin, ALL cell fractions, MS peptide hits; assay type: binding
T2 construct: Two peptides were detected for AIF in band B of the BMS-844472 eluates that were absent from the control eluates; endogenous in cells; host or cells: ALL cells (quiescent), nuclear and cytoplasmic fractions
Procedure: (§2) An important first step was to establish a source of cells that grew to high density and could remain viable even without replenishing the medium, so that they would be quiescent (Q). After several trials, the inventors settled on ALL cells. Nuclear and cytoplamic fractions were separated by low speed centrifugation after cell lysis with mild detergent. The nuclear fractions were treated with 0.5 M KCl and the chromatin spun out at 100,000 g for one hour. The cytoplasmic fraction was also spun at 100,000 g for one hour, glycerol was added to 20% and fractions frozen at −80 C. […] The fractions were loaded onto 1 ml columns of monomeric avidin beads that had been pretreated with biotin to block accessible sites and washed with pH 2.8 glycine buffer and the incubation buffer (see FIG. 10). Proteins were eluted from both columns with buffer containing 2 mM biotin, 10% TCA precipitated and analyzed on polyacrylamide gels. Bands A and B from the 1 mm gel shown in FIG. 11 were excised out and submitted to the proteomics group for analysis.

[9] = target: T3, Protein phosphatase 1G (Homo sapiens, UniProt O15355); experiment: as above; assay type: binding
T3 construct: endogenous in cells; host or cells: ALL cells (quiescent), nuclear and cytoplasmic fractions
T3 sequence (O15355 1-546): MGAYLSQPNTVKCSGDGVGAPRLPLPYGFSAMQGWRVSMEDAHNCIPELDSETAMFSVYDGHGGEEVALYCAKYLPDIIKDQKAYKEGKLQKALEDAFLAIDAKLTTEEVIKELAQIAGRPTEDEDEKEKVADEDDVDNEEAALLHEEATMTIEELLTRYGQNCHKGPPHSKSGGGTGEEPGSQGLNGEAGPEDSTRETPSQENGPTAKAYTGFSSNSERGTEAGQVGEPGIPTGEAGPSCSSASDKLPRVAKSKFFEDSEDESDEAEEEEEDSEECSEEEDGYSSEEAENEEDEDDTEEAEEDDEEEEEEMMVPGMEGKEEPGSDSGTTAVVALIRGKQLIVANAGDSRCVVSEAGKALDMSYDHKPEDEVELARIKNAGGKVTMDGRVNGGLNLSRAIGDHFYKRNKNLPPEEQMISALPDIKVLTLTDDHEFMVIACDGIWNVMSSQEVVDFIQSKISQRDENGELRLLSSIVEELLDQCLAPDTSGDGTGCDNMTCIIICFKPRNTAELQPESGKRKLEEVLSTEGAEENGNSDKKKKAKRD
Procedure: as §2

[10] = target: T4, Stress induced-phosphoprotein 1 (Hsp70/Hsp90-organizing protein) (Homo sapiens, UniProt P31948); experiment: as above; assay type: binding
T4 construct: endogenous in cells; host or cells: ALL cells (quiescent), nuclear and cytoplasmic fractions
Procedure: as §2

[11] = test system: HCT/VM46 xenograft; experiment: HCT/VM46 multidrug resistant colon carcinoma xenograft; assay type: in vivo, mice
Source text: FIG. 5. […] Panel c. […] Therefore, the consistently observed synergy of the combinations is highly sequence dependent, in vitro and in vivo.

T4 sequence (P31948 whole entry): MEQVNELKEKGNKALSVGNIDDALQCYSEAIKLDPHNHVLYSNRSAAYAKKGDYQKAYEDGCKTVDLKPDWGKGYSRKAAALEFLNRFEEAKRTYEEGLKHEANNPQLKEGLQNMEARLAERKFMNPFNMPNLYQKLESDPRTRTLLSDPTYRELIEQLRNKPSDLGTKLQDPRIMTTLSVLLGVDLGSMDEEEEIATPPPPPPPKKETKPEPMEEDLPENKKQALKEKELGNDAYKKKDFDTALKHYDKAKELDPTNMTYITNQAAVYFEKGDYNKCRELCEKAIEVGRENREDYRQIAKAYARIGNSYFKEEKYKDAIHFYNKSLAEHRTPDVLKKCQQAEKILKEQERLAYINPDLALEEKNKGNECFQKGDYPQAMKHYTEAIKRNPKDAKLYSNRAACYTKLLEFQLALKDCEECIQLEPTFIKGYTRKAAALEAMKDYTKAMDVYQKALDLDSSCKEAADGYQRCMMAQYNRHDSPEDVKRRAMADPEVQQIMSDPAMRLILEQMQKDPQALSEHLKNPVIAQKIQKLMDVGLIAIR
T2 sequence (O95831 102-613): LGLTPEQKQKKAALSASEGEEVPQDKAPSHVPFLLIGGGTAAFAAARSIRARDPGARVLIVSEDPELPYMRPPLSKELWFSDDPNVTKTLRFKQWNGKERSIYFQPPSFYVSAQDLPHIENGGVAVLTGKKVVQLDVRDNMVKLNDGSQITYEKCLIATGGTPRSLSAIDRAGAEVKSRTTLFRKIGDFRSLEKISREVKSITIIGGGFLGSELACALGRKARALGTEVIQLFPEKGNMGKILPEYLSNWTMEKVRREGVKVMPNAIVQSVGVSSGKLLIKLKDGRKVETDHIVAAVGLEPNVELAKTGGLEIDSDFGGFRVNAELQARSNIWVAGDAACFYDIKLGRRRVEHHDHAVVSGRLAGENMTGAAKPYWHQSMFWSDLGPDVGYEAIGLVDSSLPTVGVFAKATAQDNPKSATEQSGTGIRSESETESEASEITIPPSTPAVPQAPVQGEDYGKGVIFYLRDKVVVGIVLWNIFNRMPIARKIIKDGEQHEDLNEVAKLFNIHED

SMILES: O=c1[nH]cc(F)c(=O)[nH]1 [5-fluorouracil]
preferential cytotoxicity P versus Q [1]: preferentially cytotoxic to P tumor cells

SMILES: N#Cc1ccc2c(c1)CN(S(=O)(=O)c1ccccc1)[C@H](Cc1ccccc1)CN2Cc1cnc[nH]1 [BMS-212347]
Activity in vivo, cures [2]: 7/8
pIC50 [3]: 8.62
P/Q selectivity [1]: 47
pIC50 [4]: 5.92
pIC50 [5]: 7.39

SMILES: Cn1cncc1CN1C[C@@H](Cc2ccccc2)N(S(=O)(=O)c2ccccc2)Cc2cc(C#N)ccc21 [BMS-223999]
Activity in vivo, LCK (log cell kill) when no cures were achieved [2]: 0.4 LCK
Activity in vivo, cures [2]: 0/8
pIC50 [3]: 8.96
pIC50 [4]: 6.28
pIC50 [5]: 8.10

SMILES: Cn1cncc1CN1C[C@@H](Cc2ccccc2)N(S(=O)(=O)c2cccs2)Cc2cc(C#N)ccc21 [BMS-225975]
competition for the cross-linker site [6]: able to compete
Activity in vivo, LCK (log cell kill) when no cures were achieved [2]: 0.3 LCK
Activity in vivo, cures [2]: 0/8
P/Q activity ratio [1]: 0.7
P/Q selectivity [1]: 11-100 1.4
pIC50 [4]: 6.05
pIC50 [5]: 7.92
proapoptotic activity [7]: does not induce apoptosis

Peptide Hits Exp 1 [9]: 4
Peptide Hits Exp 2 [9]: 1
Peptide Hits Exp 1 [10]: 15
Peptide Hits Exp 2 [10]: 18
SMILES: N#Cc1ccc2c(c1)CN(S(=O)(=O)CCCNC(=O)CCCCCNC(=O)CCCC[C@H]1SC[C@H]3NC(=O)N[C@H]31)CCN2Cc1cnc[nH]1 [BMS-236724]
Peptide Hits Exp 1 [8]: 3
Peptide Hits Exp 2 [8]: 5

SMILES: Cn1cncc1[C@@](N)(c1ccc(Cl)cc1)c1ccc2c(c1)c(-c1cccc(Cl)c1)cc(=O)n2C [R-115777]
P/Q activity ratio [1]: 0.83

SMILES: NC(=O)N1CCC(CC(=O)N2CCC([C@H]3c4ncc(Br)cc4CCc4cc(Cl)cc(Br)c43)CC2)CC1 [SCH66336]
P/Q activity ratio [1]: 0.74

IC90 [1]: 0.0013 µM
SMILES: C/C(=C\c1csc(C)n1)[C@@H]1C[C@@H]2O[C@]2(C)CCC[C@H](C)[C@H](O)[C@@H](C)C(=O)C(C)(C)[C@@H](O)CC(=O)N1 [ixabepilone]
relative sensitivity of P versus Q cells ([1]; P cells more sensitive): > 83 fold
tumor cures ([11]; cured mice of group): did not produce any tumor cures
tumor growth delay ([11]; mouse, in vivo): 1.1 LCK

IC90 [1]: 0.0178 µM
Q cell values (IC90) ([1]; Q cells): not reached
SMILES: CC(=O)O[C@H]1C(=O)[C@@]2(C)[C@H]([C@H](OC(=O)c3ccccc3)[C@]3(O)C[C@H](OC(=O)[C@H](O)[C@@H](NC(=O)c4ccccc4)c4ccccc4)C(C)=C1C3(C)C)[C@]1(OC(C)=O)CO[C@@H]1C[C@@H]2O [paclitaxel]
